{
  "source": "patent US8557859B2",
  "about": "“Immunomodulatory compositions” (Summit (Wales) Limited, priority 2003, dated 2013)",
  "key": {"α-D-glucosidase": {"system": "α-D-glucosidase", "test": "Glycosidase inhibition, α-D-glucosidase (Bacillus)", "type": "biochemical, Bacillus stearothermophilus", "conditions": "1 mg/ml", "protocol": "(§1) All enzymes were purchased from Sigma, as were the appropriate p-nitrophenyl substrates. Assays were carried out in microtitre plates. Enzymes were assayed in 0.1 M citric acid/0.2M di-sodium hydrogen phosphate (McIlvaine) buffers at the optimum pH for the enzyme. All assays were carried out at 20° C. For screening assays the incubation assay consisted of 10 μl of enzyme solution, 10 μl of inhibitor solution (made up in water) and 50 μl of the appropriate 5 mM p-nitrophenyl substrate (3.57 mM final conc.) made up in McIlvaine buffer at the optimum pH for the enzyme.\n(§2) The reactions were stopped with 0.4M glycine (pH 10.4) during the exponential phase of the reaction, which was determined at the beginning of the assay using blanks with water, which were incubated for a range of time periods to measure the reaction rate using 5 mM substrate solution. Endpoint absorbances were read at 405 nm with a Biorad microtitre plate reader (Benchmark). Water was substituted for the inhibitors in the blanks."}, "β-D-glucosidase": {"system": "β-D-glucosidase", "test": "Glycosidase inhibition, β-D-glucosidase", "type": "biochemical, Almonds (Prunus sp.)", "protocol": "as §1, §2"}, "β-D-galactosidase": {"system": "β-D-galactosidase", "test": "Glycosidase inhibition, β-D-galactosidase", "type": "biochemical, Bovine liver", "conditions": "1 mg/ml; second galactosidase line", "protocol": "as §1, §2"}, "Naringinase": {"system": "Naringinase", "test": "Glycosidase inhibition, Naringinase", "type": "biochemical, Penecillium decumbens", "conditions": "1 mg/ml", "protocol": "as §1, §2"}, "[1]": {"system": "N-acetyl-β-D-glucosaminidase", "test": "Glycosidase inhibition, N-acetyl-β-D-glucosaminidase", "type": "biochemical, Bovine kidney", "conditions": "1 mg/ml", "protocol": "as §1, §2"}, "[2]": {"target": "rabbit gut mucosa α-D-glucosidase", "test": "Inhibition of rabbit gut mucosa α-D-glucosidase", "type": "biochemical"}, "[3]": {"target": "T1, rabbit small intestine sucrase (Oryctolagus cuniculus, UniProt P07768)", "T1 construct": "from tissue; host or cells: rabbit small intestine", "T1 sequence (P07768 whole entry)": "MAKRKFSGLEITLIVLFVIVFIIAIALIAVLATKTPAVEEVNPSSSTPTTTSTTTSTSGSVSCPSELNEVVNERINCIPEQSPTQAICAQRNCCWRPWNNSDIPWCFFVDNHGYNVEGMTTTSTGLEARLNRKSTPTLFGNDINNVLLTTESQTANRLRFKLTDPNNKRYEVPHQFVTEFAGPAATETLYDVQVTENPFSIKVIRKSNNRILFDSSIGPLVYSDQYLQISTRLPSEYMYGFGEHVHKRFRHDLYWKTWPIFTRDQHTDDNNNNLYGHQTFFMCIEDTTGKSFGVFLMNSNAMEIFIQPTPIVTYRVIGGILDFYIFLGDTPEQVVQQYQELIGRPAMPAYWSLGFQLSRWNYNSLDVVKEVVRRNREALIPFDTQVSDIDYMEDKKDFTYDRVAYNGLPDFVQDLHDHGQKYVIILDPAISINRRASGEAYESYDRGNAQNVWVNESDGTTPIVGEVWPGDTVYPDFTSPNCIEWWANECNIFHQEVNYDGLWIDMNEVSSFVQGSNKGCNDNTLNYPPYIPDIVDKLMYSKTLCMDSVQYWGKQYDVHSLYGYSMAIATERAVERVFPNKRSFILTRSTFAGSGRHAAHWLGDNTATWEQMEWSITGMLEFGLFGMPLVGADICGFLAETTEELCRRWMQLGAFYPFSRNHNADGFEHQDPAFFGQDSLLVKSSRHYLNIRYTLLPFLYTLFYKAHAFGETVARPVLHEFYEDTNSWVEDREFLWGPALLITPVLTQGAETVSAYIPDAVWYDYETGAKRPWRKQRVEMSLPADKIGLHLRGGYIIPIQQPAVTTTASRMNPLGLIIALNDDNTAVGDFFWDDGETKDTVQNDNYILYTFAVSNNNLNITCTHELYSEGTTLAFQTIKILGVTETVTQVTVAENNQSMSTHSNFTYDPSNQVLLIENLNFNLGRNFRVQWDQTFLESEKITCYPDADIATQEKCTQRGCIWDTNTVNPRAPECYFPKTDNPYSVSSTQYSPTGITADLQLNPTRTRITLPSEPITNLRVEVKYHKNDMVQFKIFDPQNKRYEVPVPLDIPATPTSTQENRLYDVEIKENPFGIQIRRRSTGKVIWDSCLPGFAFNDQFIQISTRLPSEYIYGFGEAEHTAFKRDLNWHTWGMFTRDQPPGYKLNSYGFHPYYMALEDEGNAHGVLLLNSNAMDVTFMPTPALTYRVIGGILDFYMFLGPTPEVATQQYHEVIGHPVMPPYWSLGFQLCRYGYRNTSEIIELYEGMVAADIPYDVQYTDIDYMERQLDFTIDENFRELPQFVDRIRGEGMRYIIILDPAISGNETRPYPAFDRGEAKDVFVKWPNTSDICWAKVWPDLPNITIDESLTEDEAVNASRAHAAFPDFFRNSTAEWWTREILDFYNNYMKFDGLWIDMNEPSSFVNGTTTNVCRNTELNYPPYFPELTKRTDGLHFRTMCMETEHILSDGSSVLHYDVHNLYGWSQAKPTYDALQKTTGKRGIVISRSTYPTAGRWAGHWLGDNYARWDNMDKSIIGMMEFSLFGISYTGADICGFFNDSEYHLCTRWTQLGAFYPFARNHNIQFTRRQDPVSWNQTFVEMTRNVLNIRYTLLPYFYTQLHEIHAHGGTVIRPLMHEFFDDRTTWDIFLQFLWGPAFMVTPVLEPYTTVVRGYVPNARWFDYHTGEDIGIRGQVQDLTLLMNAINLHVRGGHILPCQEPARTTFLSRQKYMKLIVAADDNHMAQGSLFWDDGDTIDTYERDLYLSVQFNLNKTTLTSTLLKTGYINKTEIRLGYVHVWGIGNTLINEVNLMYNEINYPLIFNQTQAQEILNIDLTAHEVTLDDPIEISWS", "test": "Inhibition of rabbit small intestine sucrase", "type": "biochemical", "conditions": "at a concentration of 700 μM"}, "HSV-1 (SC16)": {"system": "HSV-1 (SC16)", "test": "Treatment of murine HSV-1 infection: ear pinna thickness", "type": "in vivo, BALB/c mice", "conditions": "result in words; casuarine at both doses (15 and 150 mg/kg i.p.); famciclovir via drinking water 1 mg/ml"}, "[4]": {"test": "Treatment of murine HSV-1 infection: body weight", "type": "in vivo, BALB/c mice"}, "B16-F10 tumour cells": {"system": "B16-F10 tumour cells", "test": "Control of lung metastasis in mice", "type": "in vivo, Mice (C57/bl6)", "conditions": "50 mg/kg s/c on days 2 and 4; lungs on day 14", "quoted_text": "Mice (C57/bl6 under i/p ketamine anaesthesia) were challenged i/v (tail vein) with 5×10^4 B16-F10 tumour cells in a final volume of 100 μl per mouse on day 0. Test compounds (50 mg/kg in 200 μl sterile non-pyrogenic saline) were administered s/c (right flank) on days 2 and 4. On day 14 the mice were sacrifices and the lungs dissected and stained in Indian ink solution (150 ml bidistilled water, 30 ml India Ink, 4 drops NH4OH) for 10 minutes then fixed for at least 24 hr in Fakete's solution (90 ml 37% formaldehyde, 900 ml 70% EtOH and 45 ml glacial acetic acid). The metastases in the stained and fixed lungs could then be visualized, counted and photographed."}, "MCF-7 cells": {"system": "MCF-7 cells", "test": "Effect on glycosylation of breast cancer cells", "type": "cell-based", "conditions": "MCF-7, 0.75 mM; difference from untreated cells at the 62 and 86 hour time points", "quoted_text": "MCF-7 cells (European Collection of Cell Cultures Ref. 86012803) were taken from liquid nitrogen stock, thawed at room temperature and transferred to 10 ml Dulbeccos Modified Eagle's Medium with Hams F12, 15 mM Hepes and L-glutamine (DMEM: Cambrex Cat. No. BE12-719F) supplemented with 10% v/v foetal calf serum (FCS: BioWest Labs Cat. No. S02755, Lot. No. S1800). The FCS was pre-filtered through a 0.2 μm steril filter.\nThe cells were then centrifuged at 1,500 rpm in a Centaur bench-top centrifuge and the supernatant removed. The cells were reconstituted in fresh media and seeded into two T75 cm^3 Nunclon tissue culture flasks and allowed to settle overnight at 37° C. in a 5% CO2 incubator. The flasks were wrapped in cling film to prevent cross-contamination and the following day the media was changed to include the antibiotics penicillin and streptomycin as a precautionary measure against infection (at concentrations of 1 mg/cm^3 and 5 mg/cm^3, respectively). […]\nThe cells were harvested using a non-enzymatic method. At each of the time points the cells were viewed under the inverted light microscope and the morphology evaluated. […] The number of cells was then counted in a haemocytometer and cell viability evaluated by mixing 0.1 cm^3 of each cell suspension with a drop of trypan blue solution. […]\nEvaluated using the BioRad protein assay according to the manufacturer's instructions. […]"}, "[5]": {"system": "Na^+-dependent D-glucose uptake into ovine intestinal brush border membrane vesicles", "test": "Effect on glucose transport (competition assay with labelled D-glucose)", "type": "biochemical"}, "[6]": {"conditions": "Group 1: 15 mg/kg i.p. daily, day 0"}, "[7]": {"conditions": "Group 1: 15 mg/kg i.p. daily, day 1"}, "[8]": {"conditions": "Group 1: 15 mg/kg i.p. daily, day 2"}, "[9]": {"conditions": "Group 1: 15 mg/kg i.p. daily, day 3"}, "[10]": {"conditions": "Group 1: 15 mg/kg i.p. daily, day 4"}, "[11]": {"conditions": "Group 1: 15 mg/kg i.p. daily, day 5"}, "[12]": {"conditions": "Group 1: 15 mg/kg i.p. daily, day 6"}, "[13]": {"conditions": "Group 1: 15 mg/kg i.p. daily, day 7"}, "[14]": {"conditions": "Group 1: 15 mg/kg i.p. daily, day 8"}, "[15]": {"conditions": "Group 1: 15 mg/kg i.p. daily, day −2"}, "[16]": {"conditions": "Group 2: 150 mg/kg i.p. daily, day 0"}, "[17]": {"conditions": "Group 2: 150 mg/kg i.p. daily, day 1"}, "[18]": {"conditions": "Group 2: 150 mg/kg i.p. daily, day 2"}, "[19]": {"conditions": "Group 2: 150 mg/kg i.p. daily, day 3"}, "[20]": {"conditions": "Group 2: 150 mg/kg i.p. daily, day 4"}, "[21]": {"conditions": "Group 2: 150 mg/kg i.p. daily, day 5"}, "[22]": {"conditions": "Group 2: 150 mg/kg i.p. daily, day 6"}, "[23]": {"conditions": "Group 2: 150 mg/kg i.p. daily, day 7"}, "[24]": {"conditions": "Group 2: 150 mg/kg i.p. daily, day 8"}, "[25]": {"conditions": "Group 2: 150 mg/kg i.p. daily, day −2"}},
  "data": [
    {"smiles": "OC[C@@H]1[C@@H](O)[C@H](O)[C@H]2[C@H](O)[C@@H](O)CN21", "note": "[casuarine (8), (1R,2R,3R,6S,7S,7aR)-3-(hydroxymethyl)-1,2,6,7-tetrahydroxypyrrolizidine]", "values": [
      {"measurement": "% inhibition gluc (Bacillus)", "setting": "α-D-glucosidase", "result": 86, "unit": "%"},
      {"measurement": "% inhibition glucosidase", "setting": "β-D-glucosidase; 1 mg/ml", "result": 0, "unit": "%"},
      {"measurement": "inhibition of almond 6-D-glucosidase", "setting": "β-D-glucosidase; at 800 μM", "result": "not being inhibitory"},
      {"measurement": "% inhibition galactosidase", "setting": "β-D-galactosidase", "result": 0, "unit": "%"},
      {"measurement": "% inhibition Naringinase", "setting": "Naringinase", "result": "−2", "unit": "%"},
      {"measurement": "% inhibition N-acetyl-β-gluc", "setting": "[1]", "result": 14, "unit": "%"},
      {"measurement": "IC50", "setting": "[2]", "result": 210, "unit": "µM"},
      {"measurement": "inhibition of rabbit small intestine sucrase", "setting": "[3]", "result": "inhibited"},
      {"measurement": "ear thickness response", "setting": "HSV-1 (SC16)", "result": "produced a reduction in ear thickness"},
      {"measurement": "Group mean weight", "setting": "[4]; [6]", "result": 16.7, "unit": "g"},
      {"measurement": "Weight (% change)", "setting": "[4]; [6]", "result": 3.1, "unit": "%"},
      {"measurement": "Group mean weight", "setting": "[4]; [7]", "result": 17.1, "unit": "g"},
      {"measurement": "Weight (% change)", "setting": "[4]; [7]", "result": 5.6, "unit": "%"},
      {"measurement": "Group mean weight", "setting": "[4]; [8]", "result": 17.1, "unit": "g"},
      {"measurement": "Weight (% change)", "setting": "[4]; [8]", "result": 5.6, "unit": "%"},
      {"measurement": "Group mean weight", "setting": "[4]; [9]", "result": 17.6, "unit": "g"},
      {"measurement": "Weight (% change)", "setting": "[4]; [9]", "result": 8.6, "unit": "%"},
      {"measurement": "Group mean weight", "setting": "[4]; [10]", "result": 17.4, "unit": "g"},
      {"measurement": "Weight (% change)", "setting": "[4]; [10]", "result": 7.4, "unit": "%"},
      {"measurement": "Group mean weight", "setting": "[4]; [11]", "result": 17.6, "unit": "g"},
      {"measurement": "Weight (% change)", "setting": "[4]; [11]", "result": 8.6, "unit": "%"},
      {"measurement": "Group mean weight", "setting": "[4]; [12]", "result": 17.7, "unit": "g"},
      {"measurement": "Weight (% change)", "setting": "[4]; [12]", "result": 9.2, "unit": "%"},
      {"measurement": "Group mean weight", "setting": "[4]; [13]", "result": 17.4, "unit": "g"},
      {"measurement": "Weight (% change)", "setting": "[4]; [13]", "result": 7.4, "unit": "%"},
      {"measurement": "Group mean weight", "setting": "[4]; [14]", "result": 17.7, "unit": "g"},
      {"measurement": "Weight (% change)", "setting": "[4]; [14]", "result": 9.3, "unit": "%"},
      {"measurement": "Group mean weight", "setting": "[4]; [15]", "result": 16.2, "unit": "g"},
      {"measurement": "Weight (% change)", "setting": "[4]; [15]", "result": 0, "unit": "%"},
      {"measurement": "Group mean weight", "setting": "[4]; [16]", "result": 16, "unit": "g"},
      {"measurement": "Weight (% change)", "setting": "[4]; [16]", "result": 3.2, "unit": "%"},
      {"measurement": "Group mean weight", "setting": "[4]; [17]", "result": 16.4, "unit": "g"},
      {"measurement": "Weight (% change)", "setting": "[4]; [17]", "result": 5.8, "unit": "%"},
      {"measurement": "Group mean weight", "setting": "[4]; [18]", "result": 16.3, "unit": "g"},
      {"measurement": "Weight (% change)", "setting": "[4]; [18]", "result": 5.2, "unit": "%"},
      {"measurement": "Group mean weight", "setting": "[4]; [19]", "result": 16.6, "unit": "g"},
      {"measurement": "Weight (% change)", "setting": "[4]; [19]", "result": 7.1, "unit": "%"},
      {"measurement": "Group mean weight", "setting": "[4]; [20]", "result": 16.4, "unit": "g"},
      {"measurement": "Weight (% change)", "setting": "[4]; [20]", "result": 5.8, "unit": "%"},
      {"measurement": "Group mean weight", "setting": "[4]; [21]", "result": 16.8, "unit": "g"},
      {"measurement": "Weight (% change)", "setting": "[4]; [21]", "result": 8.4, "unit": "%"},
      {"measurement": "Group mean weight", "setting": "[4]; [22]", "result": 17, "unit": "g"},
      {"measurement": "Weight (% change)", "setting": "[4]; [22]", "result": 9.7, "unit": "%"},
      {"measurement": "Group mean weight", "setting": "[4]; [23]", "result": 16.7, "unit": "g"},
      {"measurement": "Weight (% change)", "setting": "[4]; [23]", "result": 7.7, "unit": "%"},
      {"measurement": "Group mean weight", "setting": "[4]; [24]", "result": 16.8, "unit": "g"},
      {"measurement": "Weight (% change)", "setting": "[4]; [24]", "result": 8.4, "unit": "%"},
      {"measurement": "Group mean weight", "setting": "[4]; [25]", "result": 15.5, "unit": "g"},
      {"measurement": "Weight (% change)", "setting": "[4]; [25]", "result": 0, "unit": "%"},
      {"measurement": "Metastatic morphology", "setting": "B16-F10 tumour cells", "result": "Metastasis restricted to apical tip of lung"},
      {"measurement": "glycan synthesis and/or N-linked glycosylation in breast cancer cells", "setting": "MCF-7 cells", "result": "can inhibit glycan synthesis and/or N-linked glycosylation"},
      {"measurement": "Glucose uptake", "setting": "[5]; initial rate, control 240", "result": 265, "unit": "pmol/s/mg"},
      {"measurement": "glucose transport", "setting": "[5]; result in words", "result": "slightly stimulated"}
    ]}
  ]
}
